Tests used:
miR-221-3p = assay: RT-qPCR hybridization to miR-221-3p probe; type: cell-based, human; conditions: U251 cells, 48 hours, calixarene 1 at 2.5 μM, PNAs at 2 μM
Procedure: The human glioma U251 cells[50] were cultured in humidified atmosphere of 5% CO2/air in RPMI-1640 medium (Gibco, Life Technologies, Monza, Italy) supplemented with 10% (v/v) fetal bovine serum (FBS, Biowest, Nuaillé, France), 100 units/mL penicillin and 100 µg/mL streptomycin (Pen-Strep, Sigma-Aldrich, Saint Louis, Missouri, USA). All PNA transfection procedures were performed under the conditions described here below. Briefly, a mixture constituted by RPMI-1640 medium containing calixarene 1 at 2.5 µM final concentration, and 2 µM PNA was prepared and incubated for 20 minutes at room temperature, without serum. After the incubation, 10% (v/v) of FBS was added. […]
For miRNAs quantification, obtained RNA was reverse transcribed using TaqMan MicroRNA Reverse Transcription Kit (Applied Biosystems, Foster City, CA, USA) and miRNA specific stem-loop primer (hsa-miR-96-5p, ID: 000186; hsa-miR-155-5p, ID: 002623; hsa-miR-210-3p, ID: 000512; hsa-miR-221-3p, ID: 000524). Reverse transcription quantitative polymerase-chain reaction (RT-qPCR) was performed according to the manufacturer’s protocols and as indicated elsewhere. […] The relative expression was calculated using the comparative cycle threshold method (ΔΔCT) and U6 snRNA (hsa U6 snRNA, ID:001973) and hsa-let-7c (hsa-let-7c, ID:000379) as endogenous controls. […]

Fl-a221PNA = assay: Fluorescence titration of Fl-a221PNA with calixarene 1; type: binding; conditions: Fl-a221PNA 2 μM, HEPES 16 mM, NaCl 40 mM, pH 7.4, λex = 494 nm, 1 added stepwise up to 9.9 μM
Procedure: For a fast evaluation of the interaction with PNA, fluorescently labelled Fl-a221PNA (Fl: Fluorescein) was diluted to a final concentration of 2 μM in buffer (HEPES 16 mM, NaCl 40 mM, pH 7.4) and placed in a fluorescence cuvette; to this, a concentrated solution of the argininocalix[4]arene 1 (100 μM in EtOH/H2O/DMSO = 2/2/1 v/v/v) was added stepwise (up to a final concentration of 9.9 μM of calixarene), and changes in the fluorescein emission intensity (with λex = 494 nm) were measured after each addition. Correction for lamp fluctuation was performed by measuring the fluorescence of a standard 2 μM fluorescein solution after each spectra; this correction and that for dilution were performed using the formula: Fi, corr = Fi,obs × (Fin /Fi) × (Vi /Vin), where Fi: intensity at the ith point and Fin: initial intensity of the fluorescein standard, Vi: total volume at the ith point and Vin: initial volume.
In order to rule out that the observed delivery was solely due to permeabilization of cells caused by the argininocalixarene, without interaction between the carrier and the PNA, Fl-a221PNA was titrated in vitro in buffer by adding 1 and measuring the changes in fluorescence emission (Fig. 4). […] A slight shift of the fluorescence maximum (from 519 to 523 nm) was also observed, consistent with a more polar microenvironment generated by the cationic calixarene.

U251 cells [1] = assay: Cell viability assay (Muse Count & Viability Kit); type: cell-based, human; conditions: in contact for all the treatment time
Procedure: The human glioma U251 cells[50] were cultured in humidified atmosphere of 5% CO2/air in RPMI-1640 medium (Gibco, Life Technologies, Monza, Italy) supplemented with 10% (v/v) fetal bovine serum (FBS, Biowest, Nuaillé, France), 100 units/mL penicillin and 100 µg/mL streptomycin (Pen-Strep, Sigma-Aldrich, Saint Louis, Missouri, USA). All PNA transfection procedures were performed under the conditions described here below. Briefly, a mixture constituted by RPMI-1640 medium containing calixarene 1 at 2.5 µM final concentration, and 2 µM PNA was prepared and incubated for 20 minutes at room temperature, without serum. After the incubation, 10% (v/v) of FBS was added. Cell culture medium was removed and replaced with the transfection mixture, which was maintained in contact with cells until the end of the treatment.
(§1) Cell viability after the transfection with 1 was evaluated with Muse Count & Viability Kit (Millipore, Billerica, Massachusetts, USA), using Muse Cell Analyser (Millipore, Billerica, Massachusetts, USA). To perform analysis, 50 µL of suspension cells were added to 225 µL of Muse Count & Viability Reagent, the solution was incubated at room temperature for 5 minutes, protected from the light and then 1 × 10^3 events were analysed using Muse Cell Analyser (Millipore, Billerica, Massachusetts, USA). The effects on cell growth were studied by determining the cell number/ml using a Z2 Coulter Counter (Coulter Electronics, Hialeah, FL, USA). The effects of calixarene 1 on cell viability, cell growth and cell morphology were compared to those of Lipofectamine RNAiMAX (Invitrogen, Monza, Italy).
One of the major issues associated with the use of commercial available vehicles is the high toxicity of these compounds. For such reason 1 was first evaluated for its effect on cell viability when used to transfect molecules. […] Viability profile was determined at three different time points, 24, 48 and 72 hours after transfection, with three different concentrations of […], 1.25, 2.5, and 10 μM. […]

U251 cells [2] = assay: Cell morphology by microscopic inspection; type: cell-based, human; conditions: 72 hours of cell culture, 2.5 µM calixarene 1 or 3μL/mL lipofectamine
Procedure: as §1
(§2) Comparison was done with the effects of lipofectamine analyzed after 72 hours of cell culture. […] These findings are in agreement with the cell morphology profile shown in Fig. 2(D–F) and determined by microscopic inspection after 72 hours of cell culture in the presence of 2.5 µM calixarene 1 (Fig. 2E), 3μL/mL lipofectamine (Fig. 2F) or in the absence of both the delivery systems (Fig. 2D).

U251 cells [3] = assay: Effects on cell growth (cell number/ml, Z2 Coulter Counter); type: cell-based, human; conditions: after 72 hours of cell culture, effect of 1 significant only at 10 µM, lipofectamine within 0.5–12 μl/ml
Procedure: as §1, §2

For tetraargininocalix[4]arene [compound 1], the “effect on miR-221-3p hybridization signal” value (miR-221-3p) was “no effects”, the “concentration of carrier at saturation of fluorescence quenching” value (Fl-a221PNA) was 2.5 µM and the “percentage of total live cells” value (U251 cells [1]; 1.25 µM of 1, 24 hours after the transfection) was “no differences”. The “percentage of total live cells” value (U251 cells [1]; 2.5 µM of 1, 24 hours after the transfection) was “no differences”, the live cells percentage (U251 cells [1]; 10 µM of 1, 24 hours after the transfection) was “slight decrease” and the “effect on cell morphology” value (U251 cells [2]) was “does not affect cell morphology”. For the same substance, the “effect on cell proliferation (cell growth)” value (U251 cells [3]) was “minor”.

Reference: article PMC6395679, “Efficient cell penetration and delivery of peptide nucleic acids by an argininocalix[4]arene” (Scientific Reports, 2019)
